Measurements from patent US7875647B2, “Heteroaryl-pyrazole derivatives as cannabinoid CB1 receptor antagonists” (Green Cross Corporation, priority 2006, dated 2011).

Target: T1, Cannabinoid-1 receptor (CB1R) (Rattus norvegicus, UniProt P20272)
T1 construct: The tissue obtained from the brain of SD rats was homogenized; from tissue; host or cells: brain of SD rats (membrane pellet of the homogenate)
Assay: Cannabinoid-1 receptor (CB1R) binding affinity assay ([3H]CP-55940, rat CB-1 receptor binding protocol)
Conditions: brain tissue of SD rats, [3H]CP-55940, 30° C. 60 min; read-out: IC50
Method: The tissue obtained from the brain of SD rats was homogenized with a Dounce homogenate system in TME (50 mM Tris, 3 mM MgCl2 and 1 mM EDTA, pH 7.4) at 4° C., and the homogenate was centrifuged at 48,000 g for 30 min. at 4° C. The pellet was resuspended in 5 ml of TME and the suspension was divided into aliquots and stored at −70° C. until its use in the following assay.
The tissue concentrations were determined by Bradford protein analysis, and 148 μl of brain tissue of the required concentration was added to the plate. The plate was covered and placed in a 30° C. incubator for 60 min, and then transformed on GF/B filtermat pretreated in polyethylenimine (PEI) using a cell harvester. Each filter was washed five times and dried at 60° C. for 1 hr. Then, the degree of radioactivity retained by the filter was measured using Wallac Microbeta™ (PerkinElmer Life Sciences, Inc., Massachusetts, U.S.A.) and the activity of the compound for inhibiting CB1 receptor was determined therefrom.

T1 sequence (P20272 whole entry): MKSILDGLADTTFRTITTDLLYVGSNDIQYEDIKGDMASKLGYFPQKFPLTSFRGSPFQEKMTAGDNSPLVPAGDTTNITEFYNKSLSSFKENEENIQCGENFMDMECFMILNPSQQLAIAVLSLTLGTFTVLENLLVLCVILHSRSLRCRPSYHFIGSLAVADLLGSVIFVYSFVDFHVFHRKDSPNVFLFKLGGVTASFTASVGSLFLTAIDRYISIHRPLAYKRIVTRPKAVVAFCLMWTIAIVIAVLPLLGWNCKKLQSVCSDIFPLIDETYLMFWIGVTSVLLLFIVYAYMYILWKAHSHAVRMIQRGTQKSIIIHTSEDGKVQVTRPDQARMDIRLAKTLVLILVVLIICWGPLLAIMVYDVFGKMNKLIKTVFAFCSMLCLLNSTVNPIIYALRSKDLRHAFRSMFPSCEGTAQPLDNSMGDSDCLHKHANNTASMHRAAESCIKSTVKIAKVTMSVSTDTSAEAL

IC50 [µM]	Compound
0.0357	Cc1c(-c2nnc(CC3CCCC3)o2)nn(-c2ccc(Cl)cc2Cl)c1-c1ccc(Cl)cc1 [Example 22, 2-(5-(4-Chlorophenyl)-1-(2,4-dichlorophenyl)-4-methyl-1H-pyrazol-3-yl)-5-(cyclopentylmethyl)-1,3,4-oxadiazole]
0.0838	CCc1c(-c2nnc(C3(C#N)CC3)o2)nn(-c2ccc(Cl)cc2Cl)c1-c1ccc(Cl)cc1 [Example 268, 1-(5-(5-(4-chlorophenyl)-1-(2,4-dichlorophenyl)-4-ethyl-1H-pyrazol-3-yl)-1,3,4-oxadiazol-2-yl)cyclopropanecarbonitrile]
0.0543	Cc1c(-c2nnc(C3CCOCC3)s2)nn(-c2ccc(Cl)cc2Cl)c1-c1ccc(Cl)cc1 [Example 358, 2-(5-(4-Chlorophenyl)-1-(2,4-dichlorophenyl)-4-methyl-1H-pyrazol-3-yl)-5-(tetrahydro-2H-pyran-4-yl)-1,3,4-thiadiazole]
0.834	CCC(C)c1nc(-c2nn(-c3ccc(Cl)cc3Cl)c(-c3ccc(Cl)cc3)c2C)nn1CC (stereo not drawn) [Example 632, 5-sec-butyl-3-(5-(4-chlorophenyl)-1-(2,4-dichlorophenyl)-4-methyl-1H-pyrazol-3-yl)-1-ethyl-1H-1,2,4-triazole]
0.0979	Cc1c(-c2nnc(C(C)(C)CO)o2)nn(-c2ccc(Cl)cc2Cl)c1-c1ccc(Cl)cc1 [Example 253, 2-(5-(5-(4-chlorophenyl)-1-(2,4-dichlorophenyl)-4-methyl-1H-pyrazol-3-yl)-1,3,4-oxadiazol-2-yl)-2-methylpropan-1-ol]
0.0179	COc1ccc(-c2c(C)c(-c3nnc(C4(c5ccc(OC)cc5)CC4)o3)nn2-c2ccc(Cl)cc2Cl)cc1 [Example 172, 2-(1-(2,4-dichlorophenyl)-5-(4-methoxyphenyl)-4-methyl-1H-pyrazol-3-yl)-5-(1-(4-methoxyphenyl)cyclopropyl)-1,3,4-oxadiazole]
0.0655	Cc1c(-c2ncc(C3CCCC3)o2)nn(-c2ccc(Cl)cc2Cl)c1-c1ccc(Cl)cc1 [Example 643, 2-(5-(4-chlorophenyl)-1-(2,4-dichlorophenyl)-4-methyl-1H-pyrazol-3-yl)-5-cyclopentyloxazole]
0.0592	Cc1c(-c2nnc(C3(c4ccc(Cl)cc4)CCC3)o2)nn(-c2c(Cl)cccc2Cl)c1-c1ccc(Cl)cc1 [Example 162, 2-(5-(4-chlorophenyl)-1-(2,6-dichlorophenyl)-4-methyl-1H-pyrazol-3-yl)-5-(1-(4-chlorophenyl)cyclobutyl)-1,3,4-oxadiazole]
0.00875	CCc1c(-c2nnc(C3(c4ccccc4)CC3)s2)nn(-c2ccc(Cl)cc2Cl)c1-c1ccc(Br)cc1 [Example 475, 2-(5-(4-bromophenyl)-1-(2,4-dichlorophenyl)-4-ethyl-1H-pyrazol-3-yl)-5-(1-phenylcyclopropyl)-1,3,4-thiadiazole]
0.102	Cc1c(-c2nnc(CC(F)(F)F)s2)nn(-c2ccc(Cl)cc2Cl)c1-c1ccc(Cl)cc1 [Example 466, 2-(5-(4-chlorophenyl)-1-(2,4-dichlorophenyl)-4-methyl-1H-pyrazol-3-yl)-5-(2,2,2-trifluoroethyl)-1,3,4-thiadiazole]
0.061	Cc1c(-c2nnc(C3CCCCC3)s2)nn(-c2ccccc2Cl)c1-c1ccc(Cl)cc1 [Example 408, 2-(1-(2-chlorophenyl)-5-(4-chlorophenyl)-4-methyl-1H-pyrazol-3-yl)-5-cyclohexyl-1,3,4-thiadiazole]
0.00224	CCc1c(-c2nnc(C3(c4ccc(F)cc4)CC3)s2)nn(-c2ccc(Cl)cc2Cl)c1-c1ccc(Br)cc1 [Example 492, 2-(5-(4-bromophenyl)-1-(2,4-dichlorophenyl)-4-ethyl-1H-pyrazol-3-yl)-5-(1-(4-fluorophenyl)cyclopropyl)-1,3,4-thiadiazole]
0.0536	CCOC(C)(C)c1nnc(-c2nn(-c3ccc(Cl)cc3Cl)c(-c3ccc(Cl)cc3)c2C)s1 [Example 437, 2-(5-(4-chlorophenyl)-1-(2,4-dichlorophenyl)-4-methyl-1H-pyrazol-3-yl)-5-(2-ethoxypropan-2-yl)-1,3,4-thiadiazole]
0.142	Cc1c(-c2n[nH]c(C(C)C)n2)nn(-c2ccc(Cl)cc2Cl)c1-c1ccc(Cl)cc1 [Example 618, 3-(5-(4-chlorophenyl)-1-(2,4-dichlorophenyl)-4-methyl-1H-pyrazol-3-yl)-5-isopropyl-1H-1,2,4-triazole]
0.031	Cc1c(-c2nnc(C3CCCCCC3)s2)nn(-c2ccc(Cl)cc2Cl)c1-c1ccc(Br)cc1 [Example 378, 2-(5-(4-Bromophenyl)-1-(2,4-dichlorophenyl)-4-methyl-1H-pyrazol-3-yl)-5-cycloheptyl-1,3,4-thiadiazole]
0.0148	Cn1nnnc1Cc1c(-c2nnc(C(C)(C)C)o2)nn(-c2ccc(Cl)cc2Cl)c1-c1ccc(Cl)cc1 [Example 332, 2-tert-butyl-5-(5-(4-chlorophenyl)-1-(2,4-dichlorophenyl)-4-((1-methyl-1H-tetrazol-5-yl)methyl)-1H-pyrazol-3-yl)-1,3,4-oxadiazole]
0.00799	CC(C)(C)c1nnc(-c2nn(-c3ccc(Cl)cc3Cl)c(-c3ccc(Br)cc3)c2CF)o1 [Example 222, 2-(5-(4-bromophenyl)-1-(2,4-dichlorophenyl)-4-(fluoromethyl)-1H-pyrazol-3-yl)-5-tert-butyl-1,3,4-oxadiazole]
0.699	Cc1c(-c2n[nH]c(C3CCCC3)n2)nn(-c2ccc(Cl)cc2Cl)c1-c1ccc(Cl)cc1 [Example 611, 3-(5-(4-Chlorophenyl)-1-(2,4-dichlorophenyl)-4-methyl-1H-pyrazol-3-yl)-5-cyclopentyl-1H-1,2,4-triazole]
0.0328	CCc1c(-c2nnc(C3(c4ccccc4)CCCC3)s2)nn(-c2ccc(Cl)cc2Cl)c1-c1ccc(Br)cc1 [Example 485, 2-(5-(4-bromophenyl)-1-(2,4-dichlorophenyl)-4-ethyl-1H-pyrazol-3-yl)-5-(1-phenylcyclopentyl)-1,3,4-thiadiazole]
0.289	Cc1c(-c2nc(C(C)C)n(C)n2)nn(-c2ccc(Cl)cc2Cl)c1-c1ccc(Cl)cc1 [Example 634, 3-(5-(4-chlorophenyl)-1-(2,4-dichlorophenyl)-4-methyl-1H-pyrazol-3-yl)-5-isopropyl-1-methyl-1H-1,2,4-triazole]
0.0517	Cc1c(-c2nnc(C(C)C3CCCCC3)o2)nn(-c2ccc(Cl)cc2Cl)c1-c1ccc(Cl)cc1 (stereo not drawn) [Example 62, 2-(5-(4-chlorophenyl)-1-(2,4-dichlorophenyl)-4-methyl-1H-pyrazol-3-yl)-5-(1-cyclohexylethyl)-1,3,4-oxadiazole]

Compound	IC50 [µM]
CC(C)(C)c1nnc(-c2nn(-c3ccc(Cl)cc3Cl)c(-c3ccc(Cl)cc3)c2C(F)F)o1 [Example 224, 2-tert-butyl-5-(5-(4-chlorophenyl)-1-(2,4-dichlorophenyl)-4-(difluoromethyl)-1H-pyrazol-3-yl)-1,3,4-oxadiazole]	0.0361
Cc1c(-c2nnc(C3(c4ccc(Cl)cc4)CC3)o2)nn(-c2ccc(Cl)cc2Cl)c1-c1ccc(Cl)cc1 [Example 67, 2-(5-(4-chlorophenyl)-1-(2,4-dichlorophenyl)-4-methyl-1H-pyrazol-3-yl)-5-(1-(4-chlorophenyl)cyclopropyl)-1,3,4-oxadiazole]	0.00861
Cc1c(-c2nnnn2C2CCCCCC2)nn(-c2ccc(Cl)cc2Cl)c1-c1ccc(Br)cc1 [Example 608, 5-(5-(4-bromophenyl)-1-(2,4-dichlorophenyl)-4-methyl-1H-pyrazol-3-yl)-1-cycloheptyl-1H-tetrazole]	0.0165
